Results on 2 compounds are retold here after patent publication US20220206013A1, “CYSTIC FIBROSIS URINE TEST” (Aarhus Universitet, priority 2019, published 2022).

A word on the Cmax: it is the maximum level reached in the sampled fluid or tissue. A word on the Tmax: it is the time at which the peak concentration occurs.

For data set [1], the system named is Pendrin WT and KO mice. As to the kind of experiment: Secretin-induced urine alkalisation and urine HCO3− excretion in anaesthetized pendrin WT/KO mice. The class given is in vivo, mouse.
Data set [2] concerns tubule specific CFTR (CFTR-TS) WT and KO mice. As to the kind of experiment: Secretin-induced urine alkalisation and urine HCO3− excretion in tubule specific CFTR WT/KO mice. The class given is in vivo, mouse. An excerpt:
The Renal tubule specific CFTR (CFTRTS) KO mouse was produced in the laboratory of Dr. Kunzelmann and Dr. Schreiber in Regensburg/Germany and performed in compliance with the guidelines for the welfare of experimental animals issued by the Federal Government of Germany. C57BL6/J CFTR fl10 mice (Hodges et al. 2008) were bred in a C57Bl/6J background generated by the Cre/loxP-system with tissue specific Cre-recombinase expression from the Pax8 locus (Kos 2004; Bouchard et al. 2004).
(§1) Induction of anaesthesia was performed with i.p. injection of […] of a ketamine-xylazine mix (10 mg/ml and 1 mg/ml). An i.v. access was obtained by cannulation of one tail vein and the animals were kept in anaesthesia by a continuous rate infusion (CRI) corresponding to half of the induction dose pr. hour. Mice were infused with a solution containing 145 mM NaCl at pH 7.4 with a perfusion rate of 0.1 ml h^−1 via a syringe pump (Model 33 Twin syringe pump, Harvard Apparatus, USA).
(§2) Bladder catheterization was introduced and urine was collected every 5 minutes. Urinary pH was measured continuously throughout the experiment by placement of a micro pH electrode (pH-200, Unisense, Aarhus, DK) in the outflow of the catheter and the reference electrode was placed into the suprapubic operation wound (see FIG. 7A). Following a 30-min. control period, mice were injected intraperitoneally with either secretin (10 μg/25 g BW) or saline.
(§3) The urine was collected and pooled for 30 minutes allowing measurement of mean [HCO3^−] in the time periods 0-30, 30-60 and 60-90 after starting the experiment. In experiments with too low urine output, urine was pooled to allow analysis of [HCO3^−] before and after secretin application. Measurements were performed by a Corning 960 analyser (Savory et al. 1978) and calibrated to small volume samples of 50 μl or alternatively by a custom built infrared CO2-sensor based system for smaller volume samples (Trepiccione et al. 2017) (10-40 μl).
(§4) All values are presented as mean values ±standard error of mean (SEM). Due to a low number of observations in each series, n=7 in most, we were not able to determine whether the data followed a Gaussian distribution. Therefore, two-tailed Wilcoxon matched pairs signed rank test, in paired data, and two-tailed Mann-Whitney test, in unpaired data, were performed to test for significance.

Data set [3] concerns global CFTR WT and KO mice. As to the kind of experiment: Secretin-induced urine alkalisation and urine HCO3− excretion in global CFTR WT/KO mice. Format: in vivo, mouse. How it is done:
as §1, §2, §3, §4

The test system of data set [4] is Pendrin WT and KO mice. As to the kind of experiment: Secretin-induced urine alkalisation and urine HCO3− excretion in anaesthetized pendrin WT/KO mice. Format: in vivo, mouse. How it is done: as §1, §2, §3, §4
The source holds these as a separate data set.

The subject of data set [5] is CFTR wild type, CFTR knock out and pendrin knock-out mice. As to conditions: WT mice; gavage 60 μmoles NaHCO3/25 g bodyweight; cumulative sample after 3 hours.
Protocol: The experiments were performed in littermate mice bred from heterozygotes. Mice of both genders were used at an approximate age of 2 to 4 months.
The Pendrin KO mouse was produced by insertion of a neo-cassette replacing exon 8 in the Scl26a4 gene, leading to loss of pendrin expression as described in (Everett et al. 2001). It was purchased from The Jackson Laboratory, JAX stock #018424.
The global CFTR (CFTRG) KO mouse (CFTR S489X-; FABP-hCFTR) was purchased from The Jackson Laboratory, JAX stock #002364. This is a transgenic global CFTR KO mouse strain with expression of human CFTR (hCFTR) under the promoter activity of rat fatty acid binding protein 2, intestinal (Fabp2) promoter, which corrects the otherwise lethal intestinal phenotype in CFTR KO mice (Zhou et al. 1994).
Awake mice (animals as described under section A.) were manually restrained and a gavage needle was inserted into their stomach. […] Mice were then placed in metabolic cages and their urine collected for further measurement.
Urine was sampled and accumulated for 3 hr before measurement.
Data set [6] has as its target CFTR (homozygote mutation ΔF508) (Homo sapiens, UniProt P13569, DEL508-508). As to the kind of experiment: CF urine test (oral bicarbonate gastric load) in adult CF patients, before and after CFTR modulator drug.
Protocol: After 1 hr. urine samples were collected and the participant drank 200 ml of tap water. One hour later, urine samples were collected again and the participant drank further 200 ml of tap water. After three hours from the baseline the final urine sample were collected and the participants drank another 200 ml of tap water.
Nine adult CF patients aged 19 to 45 of both genders with the homozygote mutation ΔF508 were signed up for this test.
Three of the adult CF patients were treated with Orkambi® (400 mg lumacaftor/200 mg ivacaftor twice a day) for four weeks before testing the CF patients for a second time. These included patients of both genders between the age of 19 and 45.
Six of the adult CF patients were treated with Symkevi® (100 mg tezacaftor and 150 mg ivacaftor in the morning and 150 mg ivacaftor in the evening) for four weeks before testing the CF patients for a second time. These included patients of both genders between the age of 20 and 40.
Five ml of urine were given into a 250 ml glass flask.
A two-tailed paired t-test was used to test for significance. A p-value≤0.5 was chosen to represent significance.
At t=1 hr, the subjects were to void the first sample. […] The subjects then drank 200 mL of tap water. In addition, the venous acid-base status was checked.
At t=2 hrs, the subjects were to void the second sample. […] The subjects then drank 200 mL of tap water.
At t=3 hrs, the subjects were to void the third sample. […] The subjects then drank 200 mL of tap water.
The next data set deals with CFTR (Homo sapiens, UniProt P13569). As to the kind of experiment: clinical. How it is done: Twelve healthy adult volunteers aged 22 to 59 years of both genders were tested. The volunteers were healthy and without any known CFTR protein mutations.
Chain of CFTR (P13569 whole entry): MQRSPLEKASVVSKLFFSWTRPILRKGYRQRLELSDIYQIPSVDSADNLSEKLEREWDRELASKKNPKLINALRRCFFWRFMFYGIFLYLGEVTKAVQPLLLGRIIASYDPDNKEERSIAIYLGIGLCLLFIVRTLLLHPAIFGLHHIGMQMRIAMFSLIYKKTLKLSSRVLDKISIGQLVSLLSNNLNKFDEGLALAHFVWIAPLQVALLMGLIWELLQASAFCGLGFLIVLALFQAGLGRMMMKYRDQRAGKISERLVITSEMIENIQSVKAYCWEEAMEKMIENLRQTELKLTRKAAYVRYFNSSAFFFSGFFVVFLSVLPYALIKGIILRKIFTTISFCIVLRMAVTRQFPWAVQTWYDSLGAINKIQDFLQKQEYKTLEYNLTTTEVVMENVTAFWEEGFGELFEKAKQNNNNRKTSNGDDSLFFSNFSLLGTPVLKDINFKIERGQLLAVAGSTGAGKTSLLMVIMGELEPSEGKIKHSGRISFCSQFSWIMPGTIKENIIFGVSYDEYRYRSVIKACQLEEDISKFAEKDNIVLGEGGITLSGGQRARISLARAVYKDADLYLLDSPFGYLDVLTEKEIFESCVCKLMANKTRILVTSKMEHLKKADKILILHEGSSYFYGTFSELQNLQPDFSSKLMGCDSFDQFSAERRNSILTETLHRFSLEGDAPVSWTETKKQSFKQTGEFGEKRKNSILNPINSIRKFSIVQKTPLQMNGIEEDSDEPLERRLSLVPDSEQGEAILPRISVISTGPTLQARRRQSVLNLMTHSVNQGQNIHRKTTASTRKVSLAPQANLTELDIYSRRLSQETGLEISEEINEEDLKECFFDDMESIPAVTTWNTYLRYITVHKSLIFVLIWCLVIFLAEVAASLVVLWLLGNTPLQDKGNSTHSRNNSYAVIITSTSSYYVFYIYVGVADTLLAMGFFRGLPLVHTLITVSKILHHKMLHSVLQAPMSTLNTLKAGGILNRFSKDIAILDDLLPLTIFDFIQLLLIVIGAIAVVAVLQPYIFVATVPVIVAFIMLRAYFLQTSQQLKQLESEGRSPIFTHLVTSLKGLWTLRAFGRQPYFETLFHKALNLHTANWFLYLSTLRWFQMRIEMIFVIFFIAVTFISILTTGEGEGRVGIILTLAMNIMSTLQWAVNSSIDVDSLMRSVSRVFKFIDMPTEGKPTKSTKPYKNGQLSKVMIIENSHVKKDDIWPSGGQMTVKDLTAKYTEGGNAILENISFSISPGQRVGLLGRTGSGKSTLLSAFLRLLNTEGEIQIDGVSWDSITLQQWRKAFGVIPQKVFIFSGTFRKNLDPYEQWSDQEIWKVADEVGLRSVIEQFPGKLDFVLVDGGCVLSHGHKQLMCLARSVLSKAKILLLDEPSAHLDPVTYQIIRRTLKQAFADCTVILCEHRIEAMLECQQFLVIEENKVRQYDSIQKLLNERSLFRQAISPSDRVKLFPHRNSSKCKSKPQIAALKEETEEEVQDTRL
In addition, the venous acid-base status was checked.
The subjects then drank 200 mL of tap water. In addition, the venous acid-base status was checked.
The subjects then drank 200 mL of tap water.

Where [7] appears, read: 6 CF patients, pre-symkevi, oral bicarbonate load.
The mark [8] stands for this setting: both, human, in vivo, po, 79 mg/kg.

Chain of CFTR (homozygote mutation ΔF508) (P13569 with tags, fused parts or gaps DEL508-508): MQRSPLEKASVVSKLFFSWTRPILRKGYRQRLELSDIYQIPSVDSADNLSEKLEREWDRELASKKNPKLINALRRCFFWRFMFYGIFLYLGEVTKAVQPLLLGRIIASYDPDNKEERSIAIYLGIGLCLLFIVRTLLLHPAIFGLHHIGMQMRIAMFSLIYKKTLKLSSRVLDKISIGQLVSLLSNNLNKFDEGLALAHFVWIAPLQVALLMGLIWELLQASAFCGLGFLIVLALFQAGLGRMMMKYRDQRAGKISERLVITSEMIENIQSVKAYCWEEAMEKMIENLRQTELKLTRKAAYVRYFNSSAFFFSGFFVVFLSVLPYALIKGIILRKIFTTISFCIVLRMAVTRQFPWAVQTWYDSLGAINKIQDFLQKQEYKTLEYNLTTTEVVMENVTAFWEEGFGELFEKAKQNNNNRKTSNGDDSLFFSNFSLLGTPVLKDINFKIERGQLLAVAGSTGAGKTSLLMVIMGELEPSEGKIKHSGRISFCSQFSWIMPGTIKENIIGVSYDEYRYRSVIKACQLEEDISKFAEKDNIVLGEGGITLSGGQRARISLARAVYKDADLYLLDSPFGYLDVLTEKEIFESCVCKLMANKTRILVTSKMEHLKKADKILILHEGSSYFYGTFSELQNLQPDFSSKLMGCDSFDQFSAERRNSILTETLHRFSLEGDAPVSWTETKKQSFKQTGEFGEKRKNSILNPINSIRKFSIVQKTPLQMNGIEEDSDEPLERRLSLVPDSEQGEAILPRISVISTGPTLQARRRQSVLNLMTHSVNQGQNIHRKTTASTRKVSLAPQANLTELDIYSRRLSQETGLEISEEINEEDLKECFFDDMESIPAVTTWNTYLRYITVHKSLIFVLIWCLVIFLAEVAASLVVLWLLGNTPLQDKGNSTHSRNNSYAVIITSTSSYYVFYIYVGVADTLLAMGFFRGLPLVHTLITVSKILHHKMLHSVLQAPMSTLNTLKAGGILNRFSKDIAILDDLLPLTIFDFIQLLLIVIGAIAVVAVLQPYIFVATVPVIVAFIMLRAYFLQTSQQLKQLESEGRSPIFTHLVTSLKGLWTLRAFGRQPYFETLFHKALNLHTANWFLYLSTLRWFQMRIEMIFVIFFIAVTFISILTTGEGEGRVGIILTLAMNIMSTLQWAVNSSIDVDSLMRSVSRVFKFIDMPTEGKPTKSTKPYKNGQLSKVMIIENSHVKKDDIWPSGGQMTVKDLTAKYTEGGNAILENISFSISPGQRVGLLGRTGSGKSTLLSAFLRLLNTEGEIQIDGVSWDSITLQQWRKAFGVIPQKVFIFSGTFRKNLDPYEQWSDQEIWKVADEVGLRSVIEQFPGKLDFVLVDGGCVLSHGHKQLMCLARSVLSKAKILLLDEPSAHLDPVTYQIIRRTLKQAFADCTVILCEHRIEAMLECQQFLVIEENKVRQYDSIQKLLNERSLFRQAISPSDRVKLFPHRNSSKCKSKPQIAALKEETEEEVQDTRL

Turning to secretin, in the data set with Pendrin WT and KO mice [1] (dose of 0.1 μg i.p.), the pHu change result was “significant increase”. Moreover, the “pHu change with dose” value in the data set with Pendrin WT and KO mice [1] (doses of 1, 5 and 10 μg i.p.) is given as “increasing pHu alkalisations”. The “pHu effect vs control experiments” value in data set [2] (CFTR-TS KO mice, FIG. 11B) is recorded as “no significant effect”. In addition, the “urine [HCO3−] and urine HCO3− excretion rate” value in data set [2] (CFTRTS KO mice) is on record as “No significant secretin-induced differences”. For the same compound, the “peak mean urinary alkalisation” value in data set [2] (tubule specific CFTR WT mice, 10 μg/25 g BW i.p., n=7, FIG. 11A) was 0.6518±0.11; in data set [3] (global CFTR WT mice, 10 μg/25 g BW i.p., n=6, FIG. 10A) it was 0.53±0.24 pH units; with Pendrin WT and KO mice [4] (pendrin WT mice, 10 μg/25 g BW i.p., n=7, FIG. 9A), 0.397±0.1 pH units. Besides, the “urine HCO3− excretion rate, mean difference vs baseline” value in data set [2] (tubule specific CFTR WT mice, 60 minutes after secretin treatment, data not shown) came to 5.623 ± 2.2 nmol/h/kg. Also, in data set [2] (tubule specific CFTR WT mice, highest in first 30 minutes), the “urine [HCO3−] change after secretin administration” value is “pronounced increase”. Moreover, the “HCO3− excretion rate and urine [HCO3−] vs starting or control” value in data set [3] (global CFTR KO mice, at any point during the experiment, FIG. 10D) was “No significant differences”. Further, in data set [3] (global CFTR KO mice, peak 20 min post secretin, n=7, not differing from vehicle treated KO mice), the “peak difference of pHu vs pH prior to treatment” value was 0.13 pH units. For the same compound, in data set [3] (global CFTR WT mice, FIG. 10C), the “urinary [HCO3−] increase vs control group (Δ30 minutes)” value amounted to 3.02 ± 1.06 mM. Further, in data set [3] (global CFTR WT mice, after 60 min, not reaching significance (p=0.09)), the “ΔHCO3− excretion rate vs control” value is 5.55±3.25 nmol/h/g BW. Besides, the pHu alkalisation result with Pendrin WT and KO mice [4] (pendrin KO mice, 10 μg/25 g BW i.p., FIG. 9B) is given as “no significant pHu alkalisations”. Moreover, in the data set on Pendrin WT and KO mice [4] (pendrin KO mice, data not shown), the “urinary HCO3− excretion vs vehicle” value is “No differences”. Also, the “urinary [HCO3−] vs vehicle” value with Pendrin WT and KO mice [4] (pendrin KO mice, n=7, FIG. 9D) is “No differences”. Also, in the data set on Pendrin WT and KO mice [4] (pendrin KO mice, starting some 20 minutes post-injection), the “late pHu effect” value is “urinary acidification”. In addition, the “peak pHu increase” value in the data set with Pendrin WT and KO mice [4] (pendrin WT mice, 10 μg/25 g BW secretin i.p., FIG. 8C) is reported as ~0.38 units. Further, the “urinary [HCO3−]” value with Pendrin WT and KO mice [4] (pendrin WT mice, 60 minutes following injection, vehicle 0.1697 ±0.1 mM, FIG. 9C) was 1.08 ± 0.3 mM. In addition, the “urine HCO3− excretion rate” value in the data set on Pendrin WT and KO mice [4] (pendrin WT mice, 60 minutes post secretin injection, vehicle 1.18±0.57) was determined as 5.61±2.06 nmol/h/g BW.

Regarding `O=C(O)O` [bicarbonate, NaHCO3], in data set [5], the “urine bicarbonate concentration and urine pH” value is recorded as “found to increase”. The “AUC0-3 of excreted bicarbonate” value in data set [6] (setting [7]) was 22-45 mmol bicarbonate*t/L; in data set [6] (CF patients before treatment with Orkambi, oral bicarbonate load), 14-58 mmol bicarbonate *t/L; at CFTR (healthy controls, oral 79 mg/kg BW NaHCO3, FIG. 5E) it was 85-123 mmol bicarbonate *t/L. Moreover, the “peak value of urine bicarbonate (t=2 hrs)” value in data set [6] (setting [7]) fell in the range of 11 to 28 mM. Also, the figures for the Cmax (in data set [6] (setting [8]); at CFTR (setting [8])) were 14000 to 28000 µM and 45000 to 65000 µM, respectively. Also, the Tmax in data set [6] (both, human, in vivo, po, 79 mg/kg BW) came out at 2 h; at CFTR (setting [8]), 2 h.
